From patent US20120295893A1, “COMPOSITIONS AND METHODS OF COUNTERACTING RESIDUAL SEDATIVE EFFECTS OF SLEEP/ HYPNOTIC DRUGS” (COERULEUS LTD., priority 2009, published 2012)
In brackets after ≈: the same amount, converted by molar mass. Entries after “also recorded” stand apart in the source; their conditions may differ. Read-outs that look alike come from different tables or passages of the source.

Legend:
[1] = system: sleep/hypnotic effect of zolpidem or brotizolam; assay: Clinical study: immediate Word Recall Test (iWRT)
[2] = Passive transdermal paper feasibility (3M empirical model)
Description: The feasibility of transdermal delivery was evaluated for flumazenil and zolpidem. The target transdermal dose for flumazenil used in this assessment was 0.6 mg/hr.
This study addresses the feasibility of passively delivering a drug from a transdermal patch based on requirements specified for flumazenil and thereby provides evaluation of drug diffusion across the skin at a feasible rate. […] The assessment involves first qualitatively assessing the physicochemical properties and target transdermal dose of the drug by comparing them to the properties of an ideal passive transdermal drug.
This maximum limit is defined empirically by a 3M model, which can be used to estimate the largest flux and minimum patch size of the proposed drug product.
The target transdermal flux is calculated by dividing the target transdermal dose by the patch area. Using Fick's Law of Diffusion, the steady-state transdermal flux (μg/cm^2/hr) of a drug across the stratum corneum, j, is described by Equation 1: […]
where D is the diffusion coefficient of the drug in the stratum corneum (cm^2/hr), 1 is the thickness of the stratum corneum, P is the permeability coefficient (cm/hr), and Δc is the drug's concentration gradient across the stratum corneum (μg/mL), which is commonly approximated in the literature, under infinite sink conditions, by the drug's solubility in octanol (coct).
The target drug flux is estimated by dividing the target daily transdermal dose (mg/day) by the target patch size (cm^2). If the target patch size is not defined, then a value of 40 cm^2 is used. Then, using equation (1), the target permeability coefficient can be estimated by dividing the target drug flux by the drug's solubility in octanol.

[3] = system: sleep/hypnotic effect of zolpidem or brotizolam; assay: Clinical study: overall response in performance tasks, flumazenil versus placebo
[4] = cited from earlier work
[5] = Gel electrophoresis migration in agarose gel; assay type: physicochemical; details: pH 4.5 compared with pH 5.5 and 7.2; 0.66 mg/ml, 1% gel, positive electrode
Description: The following parameters were applied in order to evaluate migration in agarose gel (1%; 3 mm thick):
Total Width: 15.5 cm; Length: 15 cm; No of Lanes: 4; No of sections: 10; Buffer solution used: TAE (Tris […], Acetic acid, EDTA); Well vol: 10 ul/well; Voltage used: 50V-100V DC; and Run Time: 1 hr.
1. 0.66 mg/ml flumazenil pH 4.5—Positive Electrode 2. 0.66 mg/ml flumazenil pH 5.5—Positive Electrode 3. 0.66 mg/ml flumazenil in tween80 pH 7.2—Positive Electrode

[6] = system: sleep/hypnotic effect of zolpidem or brotizolam; assay: Clinical study: Visual Analogue Scale (sleepiness/vigilance, ability to focus, effectiveness)
[7] = Clinical study: vital signs and safety assessments
[8] = system: sleep/hypnotic effect of zolpidem or brotizolam; assay: Clinical study: Profile Of Mood States (POMS) Brief form
[9] = system: sleep/hypnotic effect of zolpidem or brotizolam; assay: Clinical study: digit symbol substitution test (DSST)
[10] = cited from earlier work; remark: listed apart in the source
[11] = high dose FLUMUP 1.6 mg, 10 participants
[12] = N = 20, sublingual 0.4 mg or 1.6 mg, change from post-hypnotic baseline

CCOC(=O)c1ncn2c1CN(C)C(=O)c1cc(F)ccc1-2 [Flumazenil, ethyl 8-fluoro-5,6-dihydro-5-methyl-6-oxo-4H-imidazo[1,5-a] [1,4]benzodiazepine-3-carboxylate]
iWRT, Δ parameter 20 min aft spray ([1]; N = 20, 0.4 or 1.6 mg): 4.2 ± 0.8 | iWRT, Δ parameter 60 min aft spray ([1]; N = 20, 0.4 or 1.6 mg): 5.4 ± 1.1 | iWRT, % difference Flum vs. P [1, 11]: 92% | iWRT, Δ parameter 20 min aft spray [1, 11]: 5.5 ± 0.9 | iWRT, Δ parameter 60 min aft spray [1, 11]: 6.1 ± 1.2 | log P vs. Ideal transdermal drug (1 to 3) [2]: + | Ionization vs. Ideal transdermal drug (Neutral) ([2]; Table 20A): + | Ionization vs. Ideal transdermal drug (Neutral) ([2]; Table 21): + | difference between flumazenil and placebo, low dose ([3]; first 10 subjects, flumazenil 0.4 mg, brotizolam 0.25 mg or zolpidem 10 mg): no significant differences; also recorded: could not be better reversed | response: differences between flumazenil and placebo ([3]; last 10 participants, flumazenil 1.6 mg, doubled hypnotic dose): over 30% | duration of effect following administration ([3]; sublingual spray): at least 60 min | start of effect following administration ([3]; sublingual spray): ≤ 20 min | pKa ([4]; SciFinderScholar): 1.14±0.2 | Ionization ([4]; Table 20A): Neutral | log P ([4]; Table 20A): 1 | Ionization ([4]; Table 21): Neutral | solubility (in words) [4]: sparingly soluble | solubility in Propylene glycol, PEG 300 and PEG 400 [4]: ~23 mM (≈ 6980 µg/mL) | solubility in pure ethanol ([4]; maximum): ~33 mM (≈ 10000 µg/mL) | pKa ([4]; product information): 1.78 | migration in agarose gel [5]: most efficient | Effectiveness, Δ parameter 20 min aft spray ([6]; N = 20, 0.4 or 1.6 mg): 2.9 ± 0.6 | Effectiveness, Δ parameter 60 min aft spray ([6]; N = 20, 0.4 or 1.6 mg): 4.5 ± 0.6 | Focus Ability, Δ parameter 20 min aft spray ([6]; N = 20, 0.4 or 1.6 mg): 2.7 ± 0.5 | Focus Ability, Δ parameter 60 min aft spray ([6]; N = 20, 0.4 or 1.6 mg): 4.3 ± 0.6 | Vigilance, Δ parameter 20 min aft spray ([6]; N = 20, 0.4 or 1.6 mg): 3.0 ± 0.6 | Vigilance, Δ parameter 60 min aft spray ([6]; N = 20, 0.4 or 1.6 mg): 4.7 ± 0.6 | Effectivenes, % difference Flum vs. P [6, 11]: 61% | Effectivenes, Δ parameter 20 min aft spray [6, 11]: 3.8 ± 0.7 | Effectivenes, Δ parameter 60 min aft spray [6, 11]: 5.5 ± 0.7 | Focus Ability, % difference Flum vs. P [6, 11]: 59% | Focus Ability, Δ parameter 20 min aft spray [6, 11]: 3.7 ± 0.7 | Focus Ability, Δ parameter 60 min aft spray [6, 11]: 5.8 ± 0.8 | Vigilance, % difference Flum vs. P [6, 11]: 69% | Vigilance, Δ parameter 20 min aft spray [6, 11]: 3.6 ± 0.8 | Vigilance, Δ parameter 60 min aft spray [6, 11]: 5.8 ± 0.8 | Diastolic BP, Δ parameter 20 min aft spray ([7]; N = 20, 0.4 or 1.6 mg): −0.5 ± 1.5 | Diastolic BP, Δ parameter 60 min aft spray ([7]; N = 20, 0.4 or 1.6 mg): −2.3 ± 1.2 | Systolic BP, Δ parameter 20 min aft spray ([7]; N = 20, 0.4 or 1.6 mg): −5.5 ± 2.3 | Systolic BP, Δ parameter 60 min aft spray ([7]; N = 20, 0.4 or 1.6 mg): −6.1 ± 2.7 | Pulse, Δ parameter 20 min aft spray [7, 12]: −2.9 ± 1.3 | Pulse, Δ parameter 60 min aft spray [7, 12]: −3.4 ± 1.6 | complaints of unusual sensation, pain, nausea, abdominal pain or other side effect ([7]; both doses of flumazenil, n=20): None of the participants complained | Diastolic BP, % difference Flum vs. P [7, 11]: 70% | Diastolic BP, Δ parameter 20 min aft spray [7, 11]: −2.0 ± 1.9 | Diastolic BP, Δ parameter 60 min aft spray [7, 11]: −2.6 ± 1.8 | Pulse, % difference Flum vs. P [7, 11]: 8% | Pulse, Δ parameter 60 min aft spray [7, 11]: −1.2 ± 2.7 | Systolic BP, % difference Flum vs. P [7, 11]: 59% | Systolic BP, Δ parameter 20 min aft spray [7, 11]: −4.7 ± 3.5 | Systolic BP, Δ parameter 60 min aft spray [7, 11]: −1.7 ± 4.2 | Pulse, Δ parameter 20 min aft spray ([7]; high dose FLUMUP 1.6 mg, 10 participants, doubled hypnotic dose): −0.4 ± 1.9 | vital signs (pulse, respiration), temperature and blood pressure ([7]; sublingual 0.4 mg and 1.6 mg, n=20): within normal values | physical, neurological, mouth and buccal, cardiac and lung examination, ECG ([7]; sublingual 0.4 mg and 1.6 mg, with respect to placebo, n=20): not adversely affected | POMS- fatigue, Δ parameter 20 min aft spray ([8]; N = 20, 0.4 or 1.6 mg): −3.7 ± 0.9 | POMS- fatigue, Δ parameter 60 min aft spray ([8]; N = 20, 0.4 or 1.6 mg): −5.5 ± 1.0 | POMS-Alertness, Δ parameter 20 min aft spray ([8]; N = 20, 0.4 or 1.6 mg): 3.5 ± 0.9 | POMS-Alertness, Δ parameter 60 min aft spray ([8]; N = 20, 0.4 or 1.6 mg): 5.3 ± 1.2 | POMS- (first POMS line, r13), % difference Flum vs. P [8, 11]: 72% | POMS- (first POMS line, r13), Δ parameter 20 min aft spray [8, 11]: −5.8 ± 1.6 | POMS- (first POMS line, r13), Δ parameter 60 min aft spray [8, 11]: −8.2 ± 1.6 | POMS- (second POMS line, r14), % difference Flum vs. P [8, 11]: 93% | POMS- (second POMS line, r14), Δ parameter 20 min aft spray [8, 11]: 4.3 ± 1.5 | POMS- (second POMS line, r14), Δ parameter 60 min aft spray [8, 11]: 7.2 ± 2.0 | DSST, Δ parameter 20 min aft spray ([9]; N = 20, 0.4 or 1.6 mg): 17.7 ± 2.3 | DSST, Δ parameter 60 min aft spray ([9]; N = 20, 0.4 or 1.6 mg): 22.4 ± 3.0 | DSST, % difference Flum vs. P [9, 11]: 92% | DSST, Δ parameter 20 min aft spray [9, 11]: 23.2 ± 3.4 | DSST, Δ parameter 60 min aft spray [9, 11]: 30.4 ± 3.6 | effective plasma level ([10]; for IV 0.2 mg): 5 to 20 ng/mL | time to peak plasma level ([10]; from the oral administration): 20 to 90 min | plasma half life time ([10]; in vivo): 7 to 15 min | protein binding ([10]; in vivo): 40% | volume distribution ([10]; in vivo): 0.63 to 1.6 L/kg | onset of action ([10]; intravenous): few seconds to two minutes | time of peak effect post administration ([10]; intravenous): six to ten minutes | bioavailability ([10]; oral delivery, high hepatic elimination): 16% | plasma level ([10]; oral dose of 200-600 mg): 143 to 439 ng/mL
